Assay results published in patent publication US9505762B2, “Purine derivatives as CB2 receptor agonists” (Hoffmann-La Roche Inc., priority 2013, dated 2016).

How the values were obtained:
human CB1 receptors = human CB1 receptors (Homo sapiens (Human), UniProt P21554); test: functional cAMP assay, CB1; assay type: cell-based; details: CHO cells expressing human CB1
Method: (§1) The growth medium was exchanged with Krebs Ringer Bicarbonate buffer with 1 mM IBMX and incubated at 30° C. for 30 min. Compounds were added to a final assay volume of 100 μl and incubated for 30 min at 30° C. Using the cAMP-Nano-TRF detection kit the assay (Roche Diagnostics) was stopped by the addition of 50 μl lysis reagent (Tris, NaCl, 1.5% Triton X100, 2.5% NP40, 10% NaN3) and 50 μl detection solutions (20 μM mAb Alexa700-cAMP 1:1, and 48 μM Ruthenium-2-AHA-cAMP) and shaken for 2 h at room temperature. The time-resolved energy transfer is measured by a TRF reader (Evotec Technologies GmbH), equipped with a ND:YAG laser as excitation source. The plate is measured twice with the excitation at 355 nm and at the emission with a delay of 100 ns and a gate of 100 ns, total exposure time 10 s at 730 (bandwidth 30 nm) or 645 nm (bandwidth 75 nm), respectively.
(§2) EC50 values were determined using Activity Base analysis (ID Business Solution, Limited).

human CB2 receptors = human CB2 receptors (Homo sapiens (Human), UniProt P34972); test: functional cAMP assay, CB2; assay type: cell-based; details: CHO cells expressing human CB2
Method: as §1, §2

Chain of human CB1 receptors (P21554 whole entry): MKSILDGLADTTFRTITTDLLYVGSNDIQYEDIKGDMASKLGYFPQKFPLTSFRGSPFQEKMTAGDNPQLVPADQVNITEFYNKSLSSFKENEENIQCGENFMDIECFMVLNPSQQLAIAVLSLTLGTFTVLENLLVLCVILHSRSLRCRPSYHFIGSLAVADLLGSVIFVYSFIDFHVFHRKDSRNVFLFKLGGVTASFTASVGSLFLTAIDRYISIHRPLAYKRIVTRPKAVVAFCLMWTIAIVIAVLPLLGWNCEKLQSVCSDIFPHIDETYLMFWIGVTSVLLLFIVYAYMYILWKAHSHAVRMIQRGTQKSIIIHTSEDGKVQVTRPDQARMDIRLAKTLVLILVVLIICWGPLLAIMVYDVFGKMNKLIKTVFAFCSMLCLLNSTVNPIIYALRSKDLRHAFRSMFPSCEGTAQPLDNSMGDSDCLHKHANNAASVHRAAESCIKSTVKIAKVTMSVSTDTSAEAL
Chain of human CB2 receptors (P34972 whole entry): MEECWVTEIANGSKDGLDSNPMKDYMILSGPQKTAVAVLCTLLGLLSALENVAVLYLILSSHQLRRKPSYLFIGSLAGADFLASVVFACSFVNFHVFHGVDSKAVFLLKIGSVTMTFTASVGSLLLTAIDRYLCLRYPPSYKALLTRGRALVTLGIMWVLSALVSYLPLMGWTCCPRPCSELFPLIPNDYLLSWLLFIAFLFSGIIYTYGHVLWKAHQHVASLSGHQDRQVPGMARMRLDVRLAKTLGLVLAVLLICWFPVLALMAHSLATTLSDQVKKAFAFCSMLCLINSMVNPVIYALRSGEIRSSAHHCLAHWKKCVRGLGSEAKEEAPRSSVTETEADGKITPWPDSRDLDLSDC

With `Cc1nnc(Cn2cnc3c(N4CC(F)(F)C(F)(F)C4)nc(C(C)(C)C)nc32)o1` [Example 79, 2-[[2-tert-butyl-6-(3,3,4,4-tetrafluoropyrrolidin-1-yl)purin-9-yl]methyl]-5-methyl-1,3,4-oxadiazole] as the compound, how does the EC50 (human CB1 receptors) read?
The EC50 was > 10000 nM.

And the EC50 (human CB2 receptors)?
The EC50 was 116 nM.

For `CC(C)(C)c1nc(N2CCC(F)(F)C2)c2ncn(Cc3ncccc3Cl)c2n1` [Example 21, 2-tert-butyl-9-[(3-chloropyridin-2-yl)methyl]-6-(3,3-difluoropyrrolidin-1-yl)purine], which EC50 (human CB1 receptors) is on record?
Its EC50 is > 10000 nM.

What about the EC50 (human CB2 receptors) of the same compound?
Its EC50 is 2.2 nM.

For `Cc1nonc1Cn1cnc2c(N3CC4(COC4)C3)nc(C(C)(C)C)nc21` [Example 149, 6-[2-tert-butyl-9-[(4-methyl-1,2,5-oxadiazol-3-yl)methyl]purin-6-yl]-2-oxa-6-azaspiro[3.3]heptane], which EC50 (human CB1 receptors) is on record?
The EC50 was > 10000 nM.

What about the EC50 (human CB2 receptors) of the same compound?
The EC50 was 185 nM.

For `CC(C)(C)c1nc(N2CCC(O)C2)c2ncn(CC3CCCCC3)c2n1` (stereo not drawn) [Example 40, 1-[2-tert-butyl-9-(cyclohexylmethyl)purin-6-yl]pyrrolidin-3-ol], which EC50 (human CB1 receptors) is on record?
The EC50 was > 10000 nM.

And the EC50 (human CB2 receptors)?
The EC50 was 71.2 nM.

`CC(C)(C)Nc1nc(N2CC3(COC3)C2)c2ncn(Cc3ccccc3Cl)c2n1` [Example 138, N-tert-butyl-9-[(2-chlorophenyl)methyl]-6-(2-oxa-6-azaspiro[3.3]heptan-6-yl)purin-2-amine] was tested. Which EC50 (human CB1 receptors) did it give?
Its EC50 is > 10000 nM.

And the EC50 (human CB2 receptors)?
Its EC50 is 78.1 nM.

With `CCn1cnc2c(N3CCC(O)C3)nc(C(C)(C)C)nc21` (stereo not drawn) [Example 35, 1-(2-tert-butyl-9-ethylpurin-6-yl)pyrrolidin-3-ol] as the compound, how does the EC50 (human CB1 receptors) read?
Its EC50 is > 10000 nM.

What about the EC50 (human CB2 receptors) of the same compound?
Its EC50 is 432 nM.

`Cn1nnnc1Cn1cnc2c(N3CCC(O)C3)nc(C(C)(C)C)nc21` (stereo not drawn) [Example 30, 1-[2-tert-butyl-9-[(1-methyltetrazol-5-yl)methyl]purin-6-yl]pyrrolidin-3-ol] was tested. Which EC50 (human CB1 receptors) did it give?
The EC50 was > 10000 nM.

What about the EC50 (human CB2 receptors) of the same compound?
Its EC50 is 301 nM.

With `CC(C)(C)c1nc(N2CC[C@H](O)C2)c2ncn(Cc3ncccc3Cl)c2n1` [Example 92, (3S)-1-[2-tert-butyl-9-[(3-chloropyridin-2-yl)methyl]purin-6-yl]pyrrolidin-3-ol] as the compound, how does the EC50 (human CB1 receptors) read?
Its EC50 is > 10000 nM.

What about the EC50 (human CB2 receptors) of the same compound?
Its EC50 is 8.4 nM.

What does the source list for `CC1(O)CCN(c2nc(C(C)(C)C)nc3c2ncn3Cc2ncccc2Cl)C1` (stereo not drawn) [Example 69, 1-[2-tert-butyl-9-[(3-chloropyridin-2-yl)methyl]purin-6-yl]-3-methylpyrrolidin-3-ol]?
EC50 (human CB1 receptors): > 10000 nM; EC50 (human CB2 receptors): 46.8 nM

Which EC50 (human CB1 receptors) does the source give for `FC1(F)CCN(c2nc(Cl)nc3c2ncn3Cc2ccccc2)C1` [Example 154, 9-benzyl-2-chloro-6-(3,3-difluoropyrrolidin-1-yl)purine] here?
The EC50 was > 10000 nM.

What about the EC50 (human CB2 receptors) of the same compound?
The EC50 was 211 nM.

What does the source list for `CC(C)(C)c1nc(N2CCC3(COC3)C2)c2ncn(Cc3c[nH]nc3C(F)(F)F)c2n1` [Example 76, 7-[2-tert-butyl-9-[[3-(trifluoromethyl)-1H-pyrazol-4-yl]methyl]purin-6-yl]-2-oxa-7-azaspiro[3.4]octane]?
EC50 (human CB1 receptors): > 10000 nM; EC50 (human CB2 receptors): 153 nM

How did the EC50 (human CB1 receptors) turn out when `CCn1cnc2c(N3CCC(F)(F)C3)nc(C(C)(C)C)nc21` [Example 9, 2-tert-butyl-6-(3,3-difluoropyrrolidin-1-yl)-9-ethylpurine] was run?
Its EC50 is > 10000 nM.

And the EC50 (human CB2 receptors)?
Its EC50 is 48.8 nM.

With `CC(=O)N[C@H]1CCN(c2nc(C(C)(C)C)nc3c2ncn3Cc2cccnc2Cl)C1` [Example 53, N—[(S)-1-[2-tert-butyl-9-[(2-chloropyridin-3-yl)methyl]purin-6-yl]pyrrolidin-3-yl]acetamide] as the compound, how does the EC50 (human CB1 receptors) read?
Its EC50 is > 10000 nM.

What about the EC50 (human CB2 receptors) of the same compound?
The EC50 was 175 nM.

With `CC1(O)CN(c2nc(C(C)(C)C)nc3c2ncn3Cc2ncccc2Cl)C1` [Example 169, 1-[2-tert-butyl-9-[(3-chloropyridin-2-yl)methyl]purin-6-yl]-3-methylazetidin-3-ol] as the compound, how does the EC50 (human CB1 receptors) read?
Its EC50 is > 10000 nM.

What about the EC50 (human CB2 receptors) of the same compound?
Its EC50 is 51.4 nM.

What does the source list for `Cc1nonc1Cn1cnc2c(N3CCC(O)C3)nc(C(C)(C)C)nc21` (stereo not drawn) [Example 43, 1-[2-tert-butyl-9-[(4-methyl-1,2,5-oxadiazol-3-yl)methyl]purin-6-yl]pyrrolidin-3-ol]?
EC50 (human CB1 receptors): > 10000 nM; EC50 (human CB2 receptors): 16.6 nM
